# Measurements from patent publication US10188106B2 (priority 2008, dated 2019).
# Structures can show the parent of a compound that is named as a salt. Where two headings read alike, the source gives them in different places.
# Key:
# Assay type in all cases: in vivo
# Alternaria solani = test: Alternaria test (tomatoes)/protective; settings: tomato plants, protective spray, evaluated 3 days after inoculation; for pest or weed control at 50 ppm: rate of application 50 ppm; for pest or weed control at 25 ppm: rate of application 25 ppm
# Procedure: (§1) Solvent: 24.5 parts by weight of acetone
# (§2) • 24.5 parts by weight of dimethylacetamide Emulsifier: 1 part by weight of alkylaryl polyglycol ether
# (§3) To produce a suitable preparation of active compound, 1 part by weight of active compound is mixed with the stated amounts of solvent and emulsifier, and the concentrate is diluted with water to the desired concentration.
# (§4) To test for protective activity, young plants are sprayed with the preparation of active compound at the stated rate of application. After the spray coating has dried on, the plants are inoculated with an aqueous spore suspension of Alternaria solani. The plants are then placed in an incubation cabinet at approximately 20° C. and a relative atmospheric humidity of 100%.
# The test is evaluated 3 days after the inoculation. 0% means an efficacy which corresponds to that of the control while an efficacy of 100% means that no disease is observed.
# Botrytis cinerea = test: Botrytis test (beans)/protective; settings: bean plants, protective spray, lesion size 2 days after inoculation
# Procedure: as §1, §2, §3
# To test for protective activity, young plants are sprayed with the preparation of active compound. After the spray coating has dried on, 2 small pieces of agar covered with growth of Botrytis cinerea are placed on each leaf. The inoculated plants are placed in a darkened chamber at 20° C. and a relative atmospheric humidity of 100%.
# 2 days after the inoculation, the size of the lesions on the leaves is evaluated. 0% means an efficacy which corresponds to that of the control, while an efficacy of 100% means that no disease is observed.
# Phytophthora infestans = settings: tomato plants, protective spray, evaluated 3 days after inoculation
# Venturia inaequalis = test: Venturia test (apples)/protective; settings: apple plants, protective spray, rate of application 100 ppm, evaluated 10 days after inoculation
# Procedure: as §1, §2, §3
# as §4, with “conidia” for “spore”, “the causal agent of apple scab (Venturia inaequalis) and” for “Alternaria solani. The plants are”, “remain for 1 day” for “placed”
# The plants are then placed in a greenhouse at approximately 21° C. and a relative atmospheric humidity of approximately 90%.
# The test is evaluated 10 days after the inoculation. 0% means an efficacy which corresponds to that of the control, while an efficacy of 100% means that no disease is observed.
# [1] = Alternaria solani, 72 h, read-out: Efficacy in %
# [2] = Alternaria solani, 72 h, rate of application 10 ppm, read-out: Efficacy in %
molecule,measurement,setting,value
"Cc1nn(C)c(F)c1C(=O)Nc1ccccc1C(C)CC(C)C (stereo not drawn) [N-[2-(1,3-dimethylbutyl)phenyl]-5-fluoro-1,3-dimethyl-1H-pyrazole-4-carboxamide]",pest or weed control at 1 ppm,"Alternaria solani; Alternaria solani, 72 h, rate of application 1 ppm, read-out: Efficacy in %",18%
CO/C=C(/C(=O)OC)c1ccccc1Oc1cc(Oc2ccccc2C#N)ncn1 [azoxystrobin],Efficacy in %,Alternaria solani; rate of application 10 ppm,15%
"Cn1cc(C(=O)Nc2ccc(F)cc2-c2ccc(Cl)c(Cl)c2)c(C(F)F)n1 [bixafen, N-(3′,4′-dichloro-5-fluorobiphenyl-2-yl)-3-(difluoromethyl)-1-methyl-1H-pyrazole-4-carboxamide]",pest or weed control at 1.25 ppm,"Alternaria solani; Alternaria solani, 72 h, rate of application 1.25 ppm, read-out: Efficacy in %",65%
O=C(Nc1ccccc1-c1ccc(Cl)cc1)c1cccnc1Cl [boscalid],Efficacy in %,Botrytis cinerea; rate of application 5 ppm,21%
N#Cc1c(Cl)c(Cl)c(Cl)c(C#N)c1Cl [chlorothalonil],pest or weed control at 50 ppm,Alternaria solani; [1],71%
same,Efficacy in %,Phytophthora infestans; rate of application 25 ppm,44%
CN/C(=N\[N+](=O)[O-])NCc1cnc(Cl)s1 [clothianidin],Efficacy in %,Venturia inaequalis,66%
CCNC(=O)NC(=O)/C(C#N)=N/OC [cymoxanil],Efficacy in %,Venturia inaequalis,23%
same,pest or weed control at 50 ppm,Alternaria solani; [1],23%
O=[N+]([O-])c1cc(C(F)(F)F)c(Cl)c([N+](=O)[O-])c1Nc1ncc(C(F)(F)F)cc1Cl [fluazinam],Efficacy in %,Botrytis cinerea; rate of application 10 ppm,79%
N#Cc1c[nH]cc1-c1cccc2c1OC(F)(F)O2 [fludioxonil],Efficacy in %,Botrytis cinerea; rate of application 5 ppm,45%
CO/N=C(/C1=NOCCO1)c1ccccc1Oc1ncnc(Oc2ccccc2Cl)c1F [fluoxastrobin],pest or weed control at 10 ppm,Alternaria solani; [2],15%
"CCCCCOC(=O)Nc1cccc(CON=C(c2ccccc2)c2nnnn2C)n1 [formula 1, pentyl {6-[({[(1-methyl-1H-tetrazol-5-yl)(phenyl)methylidene]amino}oxy)methyl]pyridin-2-yl}carbamate]",Efficacy in %,Venturia inaequalis,8%
same,pest or weed control at 5 ppm,"Alternaria solani; Alternaria solani, 72 h, rate of application 5 ppm, read-out: Efficacy in %",0%
same,pest or weed control at 10 ppm,Alternaria solani; [2],0%
same,pest or weed control at 25 ppm,Alternaria solani; [1],0%
same,pest or weed control at 50 ppm,Alternaria solani; [1],8%
same,pest or weed control at 100 ppm,"Alternaria solani; Alternaria solani, 72 h, rate of application 100 ppm, read-out: Efficacy in %",0%
same,Efficacy in %,Phytophthora infestans; rate of application 0.25 ppm,47%
same,Efficacy in %,Phytophthora infestans; rate of application 0.5 ppm,57%
same,Efficacy in %,Phytophthora infestans; rate of application 1 ppm,77%
same,Efficacy in %,Botrytis cinerea; rate of application 50 ppm,4%
same,Efficacy in %,Botrytis cinerea; rate of application 100 ppm,4%
CCO[PH](=O)O [fosetyl-Al],Efficacy in %,Phytophthora infestans; rate of application 10 ppm,0%
O=[N+]([O-])NC1=NCCN1Cc1ccc(Cl)nc1 [imidacloprid],Efficacy in %,Venturia inaequalis,4%
same,pest or weed control at 25 ppm,Alternaria solani; [1],0%
CC(C)NC(=O)N1CC(=O)N(c2cc(Cl)cc(Cl)c2)C1=O [iprodione],Efficacy in %,Botrytis cinerea; rate of application 100 ppm,66%
Cc1ccc(C(C)NC(=O)[C@@H](NC(=O)OC(C)C)C(C)C)cc1 (stereo partly drawn) [iprovalicarb],Efficacy in %,Phytophthora infestans; rate of application 1 ppm,16%
CCCOC(=O)NCCCN(C)C [propamocarb-HCl],Efficacy in %,Venturia inaequalis,4%
same,pest or weed control at 50 ppm,Alternaria solani; [1],38%
OC(Cc1ccccc1Cl)(Cn1nc[nH]c1=S)C1(Cl)CC1 (stereo not drawn) [prothioconazole],pest or weed control at 2.5 ppm,"Alternaria solani; Alternaria solani, 72 h, rate of application 2.5 ppm, read-out: Efficacy in %",23%
COC(=O)N(OC)c1ccccc1COc1ccn(-c2ccc(Cl)cc2)n1 [pyraclostrobin],pest or weed control at 10 ppm,Alternaria solani; [2],45%
CC(C)(C)C(O)(CCc1ccc(Cl)cc1)Cn1cncn1 (stereo not drawn) [tebuconazole],pest or weed control at 10 ppm,Alternaria solani; [2],55%
CON=C(C(=O)OC)c1ccccc1CON=C(C)c1cccc(C(F)(F)F)c1 [trifloxystrobin],pest or weed control at 10 ppm,Alternaria solani; [2],35%
mancozeb,Efficacy in %,Phytophthora infestans; rate of application 10 ppm,0%
propineb [Ppopineb],Efficacy in %,Phytophthora infestans; rate of application 10 ppm,0%
